Where only a bound is given, the exact number is not on record here.

Results on two compounds are retold here after US11466006B2, “Dual selective PI3 delta and gamma kinase inhibitors” (Rhizen Pharmaceuticals SA, priority 2013, dated 2022).

Data set [1] concerns the target PI3Kδ (Homo sapiens, UniProt O00329). Description: Fluorescent (HTRF) determination of PI3 kinase enzyme activity, delta isoform. Format: biochemical. Also on record: purchased Millipore (assay kit). The settings on record: Table 1, unit printed in cell; read-out: IC50 Pi3Kδ. An excerpt:
(§1) Phosphoinositide 3 kinases (PI3K) belong to a class of lipid kinases that play a critical role in the regulation of several key cellular processes. The PI3K are capable of phosphorylating the 3-hydroxy position of phosphoinositols thereby generating second messengers involved in downstream signalling events. The homogenous time resolved fluorescence (HTRF) assay allows detection of 3,4,5-triphosphate (PIP3) formed as a result of phosphorylation of phosphotidylinositol 4,5-biphosphate (PIP2) by PI3K isoforms such as α, β, γ or δ.
(§2) PI3K isoform activity for α, β, γ or δ was determined using a PI3K human HTRF™ Assay Kit (Millipore, Billerica, Mass.) with modifications. All incubations were carried out at room temperature. Briefly, 0.5 μl of 40× inhibitor (in 100% DMSO) or 100% DMSO were added to each well of a 384-well white plate (Greiner Bio-One, Monroe, N.C.) containing 14.5 μl 1× reaction buffer /PIP2 (10 mM MgCl2, 5 mM DTT, 1.38 μM PIP2) mix with or without enzyme, followed by 5 μl/well of 400 μM ATP and incubated for an additional 30 minutes. Reaction was terminated by adding 5 μl/well stop solution (Millipore, Billerica, Mass.). […] HRTF ratio was measured on a microplate reader (BMG Labtech., Germany) at an excitation wavelength of 337 nm and emission wavelengths of 665 and 615 nm with an integration time of 400 msec counting delay of 50 msec.
In general terms: In TR-FRET formats the signal depends on donor and acceptor labels being close together.

Data set [2] has as its target Pi3K γ (Homo sapiens, UniProt P48736). Put plainly: Fluorescent (HTRF) determination of PI3 kinase enzyme activity, gamma isoform. Format: biochemical. Also on record: purchased Millipore (assay kit). To be noted: Table 1, unit printed in cell; read-out: IC50 Pi3K γ.
Source text: as §1, §2

The conditions of data set [3]: reported at 55th ASH Annual Meeting 2013; cited from earlier work.

Sequence of PI3Kδ (O00329 whole entry, canonical isoform): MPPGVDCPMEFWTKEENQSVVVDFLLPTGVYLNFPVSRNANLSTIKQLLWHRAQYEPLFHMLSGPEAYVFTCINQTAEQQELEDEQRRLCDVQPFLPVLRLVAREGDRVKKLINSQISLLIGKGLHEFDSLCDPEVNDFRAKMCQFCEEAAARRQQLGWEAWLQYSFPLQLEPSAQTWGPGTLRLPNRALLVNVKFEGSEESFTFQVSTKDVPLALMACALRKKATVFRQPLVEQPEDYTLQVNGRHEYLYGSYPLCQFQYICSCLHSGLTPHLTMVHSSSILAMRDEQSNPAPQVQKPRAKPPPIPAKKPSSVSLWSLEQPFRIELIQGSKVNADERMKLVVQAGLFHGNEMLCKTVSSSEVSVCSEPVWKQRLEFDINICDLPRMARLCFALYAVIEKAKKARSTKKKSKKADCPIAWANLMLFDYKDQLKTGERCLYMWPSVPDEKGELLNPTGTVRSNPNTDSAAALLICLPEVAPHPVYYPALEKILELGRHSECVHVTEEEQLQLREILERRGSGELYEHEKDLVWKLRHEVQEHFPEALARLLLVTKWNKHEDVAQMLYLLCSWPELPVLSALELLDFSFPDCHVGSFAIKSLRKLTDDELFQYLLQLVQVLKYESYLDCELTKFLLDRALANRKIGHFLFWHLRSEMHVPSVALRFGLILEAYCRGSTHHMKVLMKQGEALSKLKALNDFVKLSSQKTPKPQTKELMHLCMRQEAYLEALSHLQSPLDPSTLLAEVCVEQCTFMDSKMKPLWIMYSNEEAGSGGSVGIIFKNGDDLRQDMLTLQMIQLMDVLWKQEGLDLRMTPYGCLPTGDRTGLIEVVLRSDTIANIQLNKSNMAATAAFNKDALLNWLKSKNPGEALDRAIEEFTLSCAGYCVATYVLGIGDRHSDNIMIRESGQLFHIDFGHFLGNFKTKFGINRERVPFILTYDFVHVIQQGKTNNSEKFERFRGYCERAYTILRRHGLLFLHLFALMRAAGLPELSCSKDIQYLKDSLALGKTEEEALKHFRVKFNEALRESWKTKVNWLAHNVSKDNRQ
Sequence of PI3Kδ (P27986 whole entry partner, canonical isoform): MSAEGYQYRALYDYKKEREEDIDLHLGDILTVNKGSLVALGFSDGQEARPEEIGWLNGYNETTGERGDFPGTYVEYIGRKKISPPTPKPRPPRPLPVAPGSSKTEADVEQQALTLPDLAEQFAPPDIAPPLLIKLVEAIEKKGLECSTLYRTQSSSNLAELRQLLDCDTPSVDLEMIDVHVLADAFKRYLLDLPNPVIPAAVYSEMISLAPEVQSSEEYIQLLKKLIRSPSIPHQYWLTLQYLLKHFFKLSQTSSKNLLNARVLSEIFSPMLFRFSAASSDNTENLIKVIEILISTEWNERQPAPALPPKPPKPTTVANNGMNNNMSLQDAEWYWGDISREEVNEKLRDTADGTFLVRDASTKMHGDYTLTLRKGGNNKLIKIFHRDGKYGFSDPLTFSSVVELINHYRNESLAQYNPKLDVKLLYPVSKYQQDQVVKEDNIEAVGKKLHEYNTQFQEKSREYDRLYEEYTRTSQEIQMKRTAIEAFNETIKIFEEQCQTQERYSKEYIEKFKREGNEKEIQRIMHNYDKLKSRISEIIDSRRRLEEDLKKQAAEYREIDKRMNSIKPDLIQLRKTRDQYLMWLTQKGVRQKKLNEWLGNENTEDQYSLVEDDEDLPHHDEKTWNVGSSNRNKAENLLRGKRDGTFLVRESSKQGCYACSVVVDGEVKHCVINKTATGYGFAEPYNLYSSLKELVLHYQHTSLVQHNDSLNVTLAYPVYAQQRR
Sequence of Pi3K γ (P48736 whole entry, canonical isoform): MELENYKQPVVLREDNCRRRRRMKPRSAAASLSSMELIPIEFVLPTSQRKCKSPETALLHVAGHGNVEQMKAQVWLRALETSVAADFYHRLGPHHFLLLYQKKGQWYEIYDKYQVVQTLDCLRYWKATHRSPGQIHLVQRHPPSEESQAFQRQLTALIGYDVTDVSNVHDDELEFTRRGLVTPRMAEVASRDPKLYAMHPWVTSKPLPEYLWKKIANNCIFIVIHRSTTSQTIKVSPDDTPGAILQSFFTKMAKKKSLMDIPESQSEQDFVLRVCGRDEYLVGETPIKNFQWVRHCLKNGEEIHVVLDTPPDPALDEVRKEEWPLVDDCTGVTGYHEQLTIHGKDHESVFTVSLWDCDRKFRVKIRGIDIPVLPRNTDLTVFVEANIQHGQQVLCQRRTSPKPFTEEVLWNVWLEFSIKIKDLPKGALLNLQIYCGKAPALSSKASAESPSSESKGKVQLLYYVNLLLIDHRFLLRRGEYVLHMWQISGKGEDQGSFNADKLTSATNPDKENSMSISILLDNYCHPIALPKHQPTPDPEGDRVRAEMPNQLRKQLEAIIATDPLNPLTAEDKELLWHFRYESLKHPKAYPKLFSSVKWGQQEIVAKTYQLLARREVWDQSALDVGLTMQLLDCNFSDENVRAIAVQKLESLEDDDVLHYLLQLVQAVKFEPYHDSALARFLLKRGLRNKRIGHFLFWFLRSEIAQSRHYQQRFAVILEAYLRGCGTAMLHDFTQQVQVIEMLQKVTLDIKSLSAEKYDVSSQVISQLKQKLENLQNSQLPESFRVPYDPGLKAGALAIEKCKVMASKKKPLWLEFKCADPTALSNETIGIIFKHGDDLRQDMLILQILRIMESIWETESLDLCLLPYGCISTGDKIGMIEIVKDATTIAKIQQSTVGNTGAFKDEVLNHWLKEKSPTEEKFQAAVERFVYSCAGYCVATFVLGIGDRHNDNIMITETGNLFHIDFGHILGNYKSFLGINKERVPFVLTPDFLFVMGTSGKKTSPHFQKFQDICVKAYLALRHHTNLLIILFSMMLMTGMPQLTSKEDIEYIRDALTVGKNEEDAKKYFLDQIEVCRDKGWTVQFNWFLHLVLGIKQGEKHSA

For `CC[C@@H](Nc1ncnc2[nH]cnc12)c1oc2ccccc2c(=O)c1-c1cccc(F)c1` [Compound A2, (R)-2-(1-(9H-purin-6-ylamino)propyl)-3-(3-fluorophenyl)-4H-chromen-4-one], the concentration for half-maximal inhibition (IC50) in data set [1] and in data set [2] was > 10 µM in each case.

Consider `C[C@H](Nc1ncnc2[nH]cnc12)c1cc2cccc(Cl)c2c(=O)n1-c1ccccc1` [IPI-45], for which, in data set [3], the “maximum tolerated dose (MTD)” value is listed as 75 mg BID.
